From PubChem BioAssay AID330 (DTP/NCI, 2004)
“And” between values parts separate entries of the source, which are not always exact repeats. Equal values may be shown once. Toxic doses and inconclusive results are not listed.

Test system: P388 leukemia ip, CD2F1 mice, survival T/C
Experiment: NCI In Vivo Anticancer Drug Screen. Data for tumor model P388 Leukemia (intraperitoneal) in CD2F1 (CDF1) mice
Settings: endpoint: median survival time, higher = longer survival
Outline: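 Mice carrying the transplanted tumor received test compound or vehicle. Survival was recorded in each group, and the value is the treated-group measurement divided by that of the vehicle-treated control group.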

[1] = dose: 50.0 mg/kg/injection, schedule: Q01DX005 (ip), vehicle: Klucel (hydroxypropylcellulose) (HPC)
[2] = dose: 100.0 mg/kg/injection, schedule: Q01DX005 (ip), vehicle: Klucel (hydroxypropylcellulose) (HPC)
[3] = dose: 50.0 mg/kg/injection, schedule: Q01DX009 (ip), vehicle: Klucel (hydroxypropylcellulose) (HPC)
[4] = dose: 100.0 mg/kg/injection, schedule: Q01DX009 (ip), vehicle: Klucel (hydroxypropylcellulose) (HPC)
[5] = dose: 200.0 mg/kg/injection, schedule: Q01DX009 (ip), vehicle: Klucel (hydroxypropylcellulose) (HPC)
[6] = dose: 200.0 mg/kg/injection, schedule: Q01DX005 (ip), vehicle: Klucel (hydroxypropylcellulose) (HPC)
[7] = dose: 50.0 mg/kg/injection, schedule: Q01DX005 (ip), vehicle: saline with Tween-80
[8] = dose: 100.0 mg/kg/injection, schedule: Q01DX005 (ip), vehicle: saline with Tween-80

CNC(=O)OCc1cocc1COC(=O)NC
T/C (dose: 12.5 mg/kg/injection, schedule: Q01DX009 (ip), vehicle: distilled water + Tween-80): 106 % of control | T/C (dose: 25.0 mg/kg/injection, schedule: Q01DX009 (ip), vehicle: distilled water + Tween-80): 101 % of control | T/C (dose: 50.0 mg/kg/injection, schedule: Q01DX009 (ip), vehicle: distilled water + Tween-80): 109 % of control | T/C (dose: 100.0 mg/kg/injection, schedule: Q01DX009 (ip), vehicle: distilled water + Tween-80): 117 % of control

CC(C)CS(=O)(=O)OCCCCOS(=O)(=O)CC(C)C
T/C [1]: 115 % of control | T/C [2]: 111 % of control

CCOc1c(N=Nc2ccccc2)c(C)nn1C(=S)S
T/C (dose: 60.0 mg/kg/injection, schedule: Q01DX005 (ip), vehicle: Klucel + Tween-80): 101 % of control | T/C (dose: 120.0 mg/kg/injection, schedule: Q01DX005 (ip), vehicle: Klucel + Tween-80): 101 % of control | T/C (dose: 240.0 mg/kg/injection, schedule: Q01DX005 (ip), vehicle: Klucel + Tween-80): 100 % of control

C=Cn1c([N+](=O)[O-])cnc1/C=C/c1ccc(C(=O)O)cc1
T/C [3]: 92 % of control and 97 % of control | T/C [4]: 89 % of control and 90 % of control | T/C [5]: 95 % of control

NC(C(=O)O)C1=CCCCCC1 (stereo not drawn)
T/C (dose: 25.0 mg/kg/injection, schedule: Q01DX005 (ip), vehicle: Klucel (hydroxypropylcellulose) (HPC)): 100 % of control | T/C [1]: 101 % of control | T/C [2]: 106 % of control | T/C [6]: 101 % of control

CCCSCN(CC)CC
T/C (dose: 50.0 mg/kg/injection, schedule: Q01DX009 (ip), vehicle: saline): 95 % of control | T/C (dose: 100.0 mg/kg/injection, schedule: Q01DX009 (ip), vehicle: saline): 90 % of control | T/C (dose: 200.0 mg/kg/injection, schedule: Q01DX009 (ip), vehicle: saline): 114 % of control

CC1CCC2=C(C1)c1ccc(O)cc1OC2(C)C (stereo not drawn)
T/C [1]: 100 % of control | T/C [2]: 96 % of control | T/C [6]: 93 % of control

Nc1ncnc2c1ncn2C(/C=N/Nc1ccccc1)OC(/C=N\Nc1ccccc1)CO (stereo not drawn)
T/C [7]: 106 % of control | T/C [8]: 106 % of control | T/C (dose: 200.0 mg/kg/injection, schedule: Q01DX005 (ip), vehicle: saline with Tween-80): 107 % of control

N#CCSc1nc(N)nc2nc[nH]c12
T/C (dose: 50.0 mg/kg/injection, schedule: Q01DX009 (ip), vehicle: saline sonified): 95 % of control | T/C (dose: 50.0 mg/kg/injection, schedule: Q04DX003 (ip), vehicle: saline with Tween-80): 95 % of control | T/C (dose: 100.0 mg/kg/injection, schedule: Q01DX009 (ip), vehicle: saline sonified): 100 % of control | T/C (dose: 100.0 mg/kg/injection, schedule: Q04DX003 (ip), vehicle: saline with Tween-80): 100 % of control | T/C (dose: 200.0 mg/kg/injection, schedule: Q01DX009 (ip), vehicle: saline sonified): 95 % of control | T/C (dose: 200.0 mg/kg/injection, schedule: Q04DX003 (ip), vehicle: saline with Tween-80): 95 % of control

[Se]=P(c1ccccc1)(N1CCOCC1)N1CCOCC1
T/C (dose: 13.75 mg/kg/injection, schedule: Q01DX001 (ip), vehicle: Klucel (hydroxypropylcellulose) (HPC)): 96 % of control | T/C (dose: 27.5 mg/kg/injection, schedule: Q01DX001 (ip), vehicle: Klucel (hydroxypropylcellulose) (HPC)): 112 % of control

BrC1C(c2ccccc2)=NOC12CN=C(c1ccccc1)O2 (stereo not drawn)
T/C (dose: 100.0 mg/kg/injection, schedule: Q01DX001 (ip), vehicle: Klucel (hydroxypropylcellulose) (HPC)): 101 % of control | T/C (dose: 200.0 mg/kg/injection, schedule: Q01DX001 (ip), vehicle: Klucel (hydroxypropylcellulose) (HPC)): 99 % of control | T/C (dose: 400.0 mg/kg/injection, schedule: Q01DX001 (ip), vehicle: Klucel (hydroxypropylcellulose) (HPC)): 96 % of control

CNC(=O)OCC1=C([Si](C)(C)C)C(=O)C(OC)=C(OC)C1=O
T/C [7]: 98 % of control | T/C [8]: 100 % of control

CC1(C)CC(OP2(=O)NCCCO2)CC(C)(C)N1O (stereo not drawn)
T/C (dose: 27.5 mg/kg/injection, schedule: Q01DX001 (ip), vehicle: saline): 150 % of control | T/C (dose: 55.0 mg/kg/injection, schedule: Q01DX001 (ip), vehicle: saline): 165 % of control

O=C(NC(=O)c1ccccc1F)Nc1ccc(C(F)(F)F)cc1
T/C [3]: 102 % of control | T/C [4]: 101 % of control | T/C [5]: 99 % of control
